This is an account of results in PMC3720542, “Population pharmacokinetics of mefloquine, piperaquine and artemether-lumefantrine in Cambodian and Tanzanian malaria patients” (Malaria Journal, 2013).

A short description of data set [1]: Population pharmacokinetic analysis (NONMEM) of artemether-lumefantrine and metabolites in Tanzanian malaria patients (Kibaoni). In kind it is in vivo, human. The conditions noted are these: for clearance / Vd: human, plasma, oral; for Vd: read-out: VSS (steady-state volume of distribution), population estimate for a person of 70 kg. The procedure:
Three studies have been conducted, one in Tanzania and two in Cambodia. The study profiles are described in Figure 1. The first study was performed during March to May 2008 at the Kibaoni Health Centre, Kilombero district, Morogoro region, Tanzania. […] Six AM-LF (Coartem®, Novartis Pharma, Switzerland) doses were administered at time 0, 8, […] according to body weight (see Table 1); patients were either admitted for three days or asked to come back to the health facility for each drug administration. Mothers of breastfed patients were encouraged to feed their children and patients admitted were provided with food. Patients who reported that they have not eaten within two hours to prior dose intake were instructed to eat as soon as possible. Patients were seen by the clinical officer on days 0, 1, 2, 3, 7, 14, 28, and 42. A blood sample for pharmacokinetic measurement was taken at baseline (pre-dose on day 0) and on days 1, 2, and 7 at pre-defined random times after the last dosing. At each visit, a filter paper sample and a thin and thick smear were taken, in addition to axillary temperature, respiratory rate and haemoglobin measurements (only on days 0, 28 and 42) as well as evaluation of symptoms (e.g. headache, vomiting, and diarrhea). The exact dose and time of last drug intake, body weight, height, age, sex, food intake and concomitant medications were carefully recorded. If patients suffered from concomitant illnesses they were provided with additional treatment (paracetamol, mebendazole, metronidazole, cloxacillin, amoxicillin). Samples of 2 ml of venous blood were collected on an EDTA Vacutainer and kept on ice for no longer than 6 h after withdrawal and then aliquoted into whole blood, plasma and pellet and immediately stored in liquid nitrogen or a -80°C freezer. […] The laboratory is part of the quality control system of the World-Wide Antimalarial Resistance Network (WWARN). The pharmacokinetic analysis for each drug taken separately was performed using the NONMEM computer program Version 6 (NM-TRAN version II). It uses mixed (fixed and random) effects regression to estimate population means and variances of the pharmacokinetic parameters and to identify factors that influence them. One-, two- and three-compartment pharmacokinetic models with first-order absorption, with and without absorption lag times, were compared. Additional one or two-compartments were used for anti-malarials presenting metabolite concentrations (AM and LF). The final parameters estimated were systemic clearance (CL/F), inter-compartmental clearance (Q/F), central volume of distribution (VC/F), peripheral volume of distribution (VP/F) and absorption rate constant (ka). Since no intravenous drug concentration data were available, these parameters represent apparent values. Where available, metabolite data were included into the model and metabolism rate constant from drug compartment to metabolite compartment (k23) and metabolite clearance (CLmet) were also estimated. Owing to identifiability problems, the volume of distribution of the metabolites (VM) DLF and DHA were assumed to equal LF and AM VC, respectively. […] The observed baseline residual plasma concentrations were fitted by estimating a factor (F0) that provided an estimation of the residual doses from previous treatment. […] Proportional and combined proportional-and-additive error models were compared to describe intra-patient (residual) variability for the mother compound, and if available for its metabolite using Cpij(1 + ε1ij) + ε2ij or Cmij(1 + ε3ij) + ε4ij, where Cpij are the corresponding predicted i^th drug plasma concentration and Cmij are the predicted metabolite concentration for the j^th individual, and ε1ij, ε2ij, ε3ij, ε4ij, are independent normally distributed residual error terms with a mean of zero and a variance of σ^2_1, σ^2_2, σ^2_3, σ^2_4. The covariate analysis was performed using a stepwise insertion/deletion approach. […]

The conditions of data set [2]: cited from earlier work.
Data set [3] in a line: Population pharmacokinetic analysis (NONMEM) of piperaquine in Cambodian malaria patients (Pramoy, DHA-PPQ). The data set is classed as in vivo, human. The procedure: The third study was performed during July to October 2008 at Pramoy Health Centre, Veal Veng district, Pursat province, Cambodia. A total of 287 suspected malaria cases were screened by microscopy, of whom 82 (29%) were infected with P. falciparum and 50 (17%) with P. vivax (no mixed infections). Children younger than six years of age and pregnant or lactating women were excluded. Three doses of DHA-PPQ (Duo-Cotecxin®, Zhejiang Holley Nanhu Pharmaceutical Co., Ltd, China) were given according to age (as per national guidelines) on three consecutive days (see Table 1). Same follow-up and blood sampling as at Phnom Dék were performed.
Samples of 2 ml of venous blood were collected on an EDTA Vacutainer and kept on ice for no longer than 6 h after withdrawal and then aliquoted into whole blood, plasma and pellet and immediately stored in liquid nitrogen or a –80°C freezer. […] The method was validated according to FDA recommendations, including assessment of extraction yield, matrix effect variability, overall process efficiency, standard addition experiments as well as anti-malarials short- and long-term stability in plasma. […] The laboratory is part of the quality control system of the World-Wide Antimalarial Resistance Network (WWARN).
The pharmacokinetic analysis for each drug taken separately was performed using the NONMEM computer program Version 6 (NM-TRAN version II). It uses mixed (fixed and random) effects regression to estimate population means and variances of the pharmacokinetic parameters and to identify factors that influence them.
One-, two- and three-compartment pharmacokinetic models with first-order absorption, with and without absorption lag times, were compared. Additional one or two-compartments were used for anti-malarials presenting metabolite concentrations (AM and LF). The final parameters estimated were systemic clearance (CL/F), inter-compartmental clearance (Q/F), central volume of distribution (VC/F), peripheral volume of distribution (VP/F) and absorption rate constant (ka). Since no intravenous drug concentration data were available, these parameters represent apparent values. Where available, metabolite data were included into the model and metabolism rate constant from drug compartment to metabolite compartment (k23) and metabolite clearance (CLmet) were also estimated. Owing to identifiability problems, the volume of distribution of the metabolites (VM) DLF and DHA were assumed to equal LF and AM VC, respectively. […] The observed baseline residual plasma concentrations were fitted by estimating a factor (F0) that provided an estimation of the residual doses from previous treatment.
Exponential errors following a log-normal distribution were assumed for the description of inter-patient variability of the pharmacokinetic parameters and were of the form: θi=θ×e^ηj where θi is the individual pharmacokinetic parameter value in the j^th individual, θ is the population parameter estimate, and ηj is the random effect value, which is independently and normally distributed with a mean of 0 and variance ω^2. Proportional and combined proportional-and-additive error models were compared to describe intra-patient (residual) variability for the mother compound, and if available for its metabolite using Cpij(1 + ϵ1ij) + ϵ2ij or Cmij(1 + ϵ3ij) + ϵ4ij, where Cpij are the corresponding predicted i^th drug plasma concentration and Cmij are the predicted metabolite concentration for the j^th individual, and ϵ1ij, ϵ2ij, ϵ3ij, ϵ4ij, are independent normally distributed residual error terms with a mean of zero and a variance of σ^2_1, σ^2_2, σ^2_3, σ^2_4.
The covariate analysis was performed using a stepwise insertion/deletion approach. Visual inspection of the correlation between post hoc individual estimates of the pharmacokinetic parameters and the available covariates was first conducted by graphical exploration. […]

The mark [4] stands for this setting: present study, Tanzanian patients, sampling 7 days.
[5] abbreviates: patients, age 7.7 ± 1.4 years, n 13, sampling 28 days.
Setting [6] is: bootstrap evaluation, 200 replicates.
[7] abbreviates: patients, median age 4.0 (1–10) years, n 50, sampling 72 h.
The mark [8] stands for this setting: patients, median age 22 (14–60) years, n 217.
The mark [9] stands for this setting: pregnant women, median age 21 (16–35) years, n 21, sampling 10 h.
[10] abbreviates: non-pregnant women, median age 27.5 (18–45) years, n 24, sampling 84 days.
Setting [11] is: patients, median age 6 (2–10) years, n 236, sampling 42 days.
[12] abbreviates: pregnant women, median age 25 (18–43) years, n 24, sampling 84 days.

Where two headings read alike, the source gives them in different places. Marks after values point to notes of the source that are not given here.

For the compound `CCCCNCC(O)c1cc(Cl)cc2c1-c1ccc(Cl)cc1/C2=C/c1ccc(Cl)cc1` (centres unmarked) [DLF, desbutyl-lumefantrine], the “CL, population estimate for a person of 70 kg” value (from here on “CL … of 70 kg”) in data set [1] (setting [4]) was 336 L/h; in data set [2] (setting [5]), 701 L/h. In data set [1] (setting [4]), the “VSS (steady-state volume of distribution), population estimate for a person of 70 kg” value was 265^f L.
`CO[C@H]1O[C@@H]2O[C@@]3(C)CC[C@H]4[C@H](C)CC[C@@H]([C@H]1C)[C@@]24OO3` [Artemether, artemether]: in data set [1] (setting [6]), the “VC, bootstrap mean of 200” value was 133 L/kg; the “k23, bootstrap mean of 200” value is 5.83 h⁻¹; the “ka, bootstrap mean of 200” value stood at 0.27 h⁻¹; the “θINH, bootstrap mean of 200” value is −0.27. In data set [1] (setting [6]), the “σC (CV%), bootstrap mean of 200” value stood at 73%. In addition, in data set [1] (concomitant treatment), the “decrease in CL in patients exposed to a CYP2C9 or CYP3A4 inhibitor” value came to 70%. Also, in data set [1] (final model), the “IIV (inter-individual variability) of CL” value is recorded as 44%; the “IIV (inter-individual variability) of k23” value was 68%; the “IIV (inter-individual variability) of ka” value was 119%; the “ka (first-order absorption rate constant), population estimate” value was 0.27 h⁻¹. The “σC (CV%), residual error for the central compartment, population estimate” value in data set [1] (final model, intra-patient variability) is 74%. Further, in data set [1] (final model, parent to metabolite (AM to DHA, LF to DLF)), the “k23 (metabolism rate constant), population estimate” value is 5.86 h⁻¹. In data set [1] (setting [4]), the clearance was 9970 mL/min and the Vd is 129 L. In data set [2] (setting [5]), the “CL … of 70 kg” value is 102 L/h and the “VSS, population estimate for a person of 70 kg” value is reported as 1263 L. Besides, in data set [2] (setting [7]), the “CL … of 70 kg” value is recorded as 182–700^b L/h and the “VSS, population estimate for a person of 70 kg” value is 364 L. Also, in data set [2] (setting [8]), the “CL … of 70 kg” value is recorded as 252^a L/h and the “VSS, population estimate for a person of 70 kg” value is 304^a L. Moreover, in data set [2] (setting [9]), the “CL … of 70 kg” value is 1054^d L/h and the “VSS, population estimate for a person of 70 kg” value is 2602^d L.
As for `Clc1ccc2c(N3CCN(CCCN4CCN(c5ccnc6cc(Cl)ccc56)CC4)CC3)ccnc2c1` [Piperaquine, piperaquine], in data set [3] (setting [6]), the “F0, bootstrap mean of 200” value came to 125 mg; the “Q, bootstrap mean of 200” value is 126 L/h; the “VP, bootstrap mean of 200” value is 20,053 L; the “ka, bootstrap mean of 200” value worked out at 1.00 h⁻¹. Besides, the “σC, bootstrap mean of 200” value in data set [3] (bootstrap evaluation, 200 replicates, listed as head prints [μmolL^-1]) is on record as 41%. Further, in data set [3] (final model), the “IIV (inter-individual variability) of CL” value is given as 45%; the “IIV (inter-individual variability) of VC” value is on record as 65%; the “IIV (inter-individual variability) of VP” value is listed as 50%; the “ka (first-order absorption rate constant), population estimate” value was 0.93 h⁻¹. Also, the “F0 (residual amount from the previous treatment), population estimate” value in data set [3] (final model, baseline) is 123 mg. The compound further had a clearance in data set [3] (human, plasma, oral, present study, 60 patients, sampling 14 days) of 1820 mL/min. The Vd in data set [3] (human, plasma, oral, present study, 60 patients, sampling 14 days, read-out: VSS, population estimate for a person of 70 kg) was 42800 L. In addition, the “residual dose (F0) as percentage of an initial dose” value in data set [3] (initial dose 480–960 mg) is 12.8–25.6%. In data set [2] (setting [10]), the “CL … of 70 kg” value is recorded as 92 L/h and the “VSS, population estimate for a person of 70 kg” value is 58,030 L. In data set [2] (patients, age 3–55 years, n 98, sampling 63 days), the “CL, population estimate” value is given as 98^h L/h. Further, the “VSS, population estimate” value in data set [2] (patients, age 3–55 years, n 98, sampling 63 days, for a patient with a median body weight of 48 kg) is recorded as 61,180^i L. In addition, in data set [2] (setting [11]), the “CL … of 70 kg” value is listed as 29 L/h and the “VSS, population estimate for a person of 70 kg” value is 14,972 L. In data set [2] (setting [12]), the “CL … of 70 kg” value is 90 L/h and the “VSS, population estimate for a person of 70 kg” value is 37,030 L.
For the compound `C[C@H]1[C@@H](O)O[C@@H]2O[C@@]3(C)CC[C@H]4[C@H](C)CC[C@@H]1[C@@]24OO3` [DHA, dihydroartemisinin], the clearance in data set [1] (setting [4]) is 6980 mL/min. Also, the Vd in data set [1] (setting [4]) is 129 L. The figures for the “CL … of 70 kg” value in data set [2] (setting [8]) and in data set [2] (setting [9]) were 237^a L/h and 564 L/h, respectively.
